Source: ChEMBL document CHEMBL4823294, “Discovery of cinnoline derivatives as potent PI3K inhibitors with antiproliferative activity” (Bioorg Med Chem Lett, 2021)
The source made the active and inactive calls. The rule behind the calls is not given here.

Experiments:
[1] = target: T1, Phosphatidylinositol 4,5-bisphosphate 3-kinase catalytic subunit delta isoform (Homo sapiens, UniProt O00329); test: Inhibition of PI3Kdelta (unknown origin)
T1 sequence (O00329 whole entry): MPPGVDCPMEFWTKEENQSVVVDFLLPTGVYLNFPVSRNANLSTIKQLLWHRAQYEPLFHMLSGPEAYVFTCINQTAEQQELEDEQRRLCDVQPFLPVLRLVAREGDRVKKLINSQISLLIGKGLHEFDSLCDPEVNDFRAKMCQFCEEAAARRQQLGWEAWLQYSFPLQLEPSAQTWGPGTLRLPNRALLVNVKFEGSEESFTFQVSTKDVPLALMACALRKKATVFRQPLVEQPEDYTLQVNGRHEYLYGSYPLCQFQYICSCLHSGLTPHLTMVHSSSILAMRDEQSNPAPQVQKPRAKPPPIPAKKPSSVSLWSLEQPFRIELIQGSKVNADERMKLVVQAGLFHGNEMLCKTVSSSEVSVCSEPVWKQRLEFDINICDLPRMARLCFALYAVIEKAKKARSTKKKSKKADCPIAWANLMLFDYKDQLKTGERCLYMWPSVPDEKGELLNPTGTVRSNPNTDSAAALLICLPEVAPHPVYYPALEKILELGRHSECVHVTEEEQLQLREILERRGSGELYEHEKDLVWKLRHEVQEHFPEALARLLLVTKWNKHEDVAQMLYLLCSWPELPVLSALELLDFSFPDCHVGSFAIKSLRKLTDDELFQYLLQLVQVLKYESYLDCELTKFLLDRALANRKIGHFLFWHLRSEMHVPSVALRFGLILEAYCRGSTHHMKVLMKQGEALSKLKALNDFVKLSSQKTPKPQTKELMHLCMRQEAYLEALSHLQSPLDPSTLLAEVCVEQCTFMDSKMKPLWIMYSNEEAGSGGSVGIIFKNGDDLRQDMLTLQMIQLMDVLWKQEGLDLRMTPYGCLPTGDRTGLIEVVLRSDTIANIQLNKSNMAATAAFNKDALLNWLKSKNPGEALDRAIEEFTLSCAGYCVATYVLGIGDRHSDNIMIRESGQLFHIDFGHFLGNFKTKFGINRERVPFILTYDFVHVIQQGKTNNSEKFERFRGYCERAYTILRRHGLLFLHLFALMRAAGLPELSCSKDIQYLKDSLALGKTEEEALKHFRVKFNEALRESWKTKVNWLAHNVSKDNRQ

HL-60 = test: Antiproliferative activity against human HL-60 cells; assay type: functional, cell-based
HeLa = test: Antiproliferative activity against human HeLa cells; assay type: functional, cell-based
[2] = target: Phosphatidylinositol 4,5-bisphosphate 3-kinase catalytic subunit alpha isoform (Homo sapiens, UniProt P42336); test: Inhibition of PI3Kalpha (unknown origin)
Sequence of Phosphatidylinositol 4,5-bisphosphate 3-kinase catalytic subunit alpha isoform (P42336 whole entry, canonical isoform): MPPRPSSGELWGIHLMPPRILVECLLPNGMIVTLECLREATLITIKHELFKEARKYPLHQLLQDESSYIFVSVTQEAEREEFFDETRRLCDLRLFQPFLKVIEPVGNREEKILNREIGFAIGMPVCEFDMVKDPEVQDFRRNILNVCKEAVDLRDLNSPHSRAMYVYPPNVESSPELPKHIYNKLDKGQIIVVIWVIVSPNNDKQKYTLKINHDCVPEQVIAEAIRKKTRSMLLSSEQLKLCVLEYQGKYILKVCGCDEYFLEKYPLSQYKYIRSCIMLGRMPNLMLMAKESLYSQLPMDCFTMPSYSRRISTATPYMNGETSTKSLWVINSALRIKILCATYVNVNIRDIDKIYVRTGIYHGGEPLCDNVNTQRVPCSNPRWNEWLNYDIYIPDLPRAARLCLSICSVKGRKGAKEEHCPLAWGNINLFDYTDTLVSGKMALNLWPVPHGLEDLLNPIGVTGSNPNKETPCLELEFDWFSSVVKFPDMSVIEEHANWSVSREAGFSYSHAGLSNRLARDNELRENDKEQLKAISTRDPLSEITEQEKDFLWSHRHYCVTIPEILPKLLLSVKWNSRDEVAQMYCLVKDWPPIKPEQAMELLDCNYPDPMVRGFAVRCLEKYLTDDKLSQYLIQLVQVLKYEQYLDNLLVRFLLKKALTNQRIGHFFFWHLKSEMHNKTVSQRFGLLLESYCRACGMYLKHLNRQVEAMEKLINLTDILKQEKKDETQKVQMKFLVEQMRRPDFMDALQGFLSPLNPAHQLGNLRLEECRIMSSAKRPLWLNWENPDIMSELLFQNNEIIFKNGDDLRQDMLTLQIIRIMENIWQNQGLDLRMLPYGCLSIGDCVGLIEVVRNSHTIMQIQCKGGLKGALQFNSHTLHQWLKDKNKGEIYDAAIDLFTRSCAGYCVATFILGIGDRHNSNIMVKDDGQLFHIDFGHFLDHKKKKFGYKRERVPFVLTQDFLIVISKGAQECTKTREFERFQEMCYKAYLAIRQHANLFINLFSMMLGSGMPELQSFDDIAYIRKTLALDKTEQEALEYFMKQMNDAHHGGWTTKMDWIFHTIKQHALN

[3] = target: Phosphatidylinositol 4,5-bisphosphate 3-kinase catalytic subunit beta isoform (Homo sapiens, UniProt P42338); test: Inhibition of PI3Kbeta (unknown origin)
Sequence of Phosphatidylinositol 4,5-bisphosphate 3-kinase catalytic subunit beta isoform (P42338 whole entry, canonical isoform): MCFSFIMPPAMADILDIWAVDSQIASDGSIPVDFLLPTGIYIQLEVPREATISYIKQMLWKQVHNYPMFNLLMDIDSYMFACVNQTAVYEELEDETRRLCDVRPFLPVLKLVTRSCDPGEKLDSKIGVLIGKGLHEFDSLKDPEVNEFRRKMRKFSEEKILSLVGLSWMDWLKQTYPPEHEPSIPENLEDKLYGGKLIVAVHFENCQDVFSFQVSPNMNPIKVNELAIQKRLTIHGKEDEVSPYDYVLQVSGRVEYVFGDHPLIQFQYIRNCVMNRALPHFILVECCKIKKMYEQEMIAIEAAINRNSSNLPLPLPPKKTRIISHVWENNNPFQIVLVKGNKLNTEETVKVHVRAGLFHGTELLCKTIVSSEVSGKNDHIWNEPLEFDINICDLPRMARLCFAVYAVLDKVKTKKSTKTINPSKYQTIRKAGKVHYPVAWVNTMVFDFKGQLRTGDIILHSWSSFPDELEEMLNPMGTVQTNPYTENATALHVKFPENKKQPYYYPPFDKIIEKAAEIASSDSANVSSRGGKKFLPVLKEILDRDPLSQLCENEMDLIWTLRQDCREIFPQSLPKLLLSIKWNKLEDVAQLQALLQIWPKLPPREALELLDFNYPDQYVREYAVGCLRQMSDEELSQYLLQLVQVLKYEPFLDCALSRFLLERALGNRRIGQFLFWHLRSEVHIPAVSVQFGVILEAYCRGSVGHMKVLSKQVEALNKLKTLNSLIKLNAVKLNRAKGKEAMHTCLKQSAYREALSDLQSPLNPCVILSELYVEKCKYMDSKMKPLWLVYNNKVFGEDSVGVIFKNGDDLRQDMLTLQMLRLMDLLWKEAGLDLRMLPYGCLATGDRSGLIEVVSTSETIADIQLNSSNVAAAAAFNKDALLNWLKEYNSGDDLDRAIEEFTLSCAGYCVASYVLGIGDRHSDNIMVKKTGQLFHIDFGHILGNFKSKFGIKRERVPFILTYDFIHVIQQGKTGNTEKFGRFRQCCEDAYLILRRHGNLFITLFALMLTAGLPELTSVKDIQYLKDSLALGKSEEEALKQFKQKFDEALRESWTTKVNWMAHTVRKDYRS

[4] = target: Phosphatidylinositol 4,5-bisphosphate 3-kinase catalytic subunit gamma isoform (Homo sapiens, UniProt P48736); test: Inhibition of PI3Kgamma (unknown origin)
Sequence of Phosphatidylinositol 4,5-bisphosphate 3-kinase catalytic subunit gamma isoform (P48736 whole entry, canonical isoform): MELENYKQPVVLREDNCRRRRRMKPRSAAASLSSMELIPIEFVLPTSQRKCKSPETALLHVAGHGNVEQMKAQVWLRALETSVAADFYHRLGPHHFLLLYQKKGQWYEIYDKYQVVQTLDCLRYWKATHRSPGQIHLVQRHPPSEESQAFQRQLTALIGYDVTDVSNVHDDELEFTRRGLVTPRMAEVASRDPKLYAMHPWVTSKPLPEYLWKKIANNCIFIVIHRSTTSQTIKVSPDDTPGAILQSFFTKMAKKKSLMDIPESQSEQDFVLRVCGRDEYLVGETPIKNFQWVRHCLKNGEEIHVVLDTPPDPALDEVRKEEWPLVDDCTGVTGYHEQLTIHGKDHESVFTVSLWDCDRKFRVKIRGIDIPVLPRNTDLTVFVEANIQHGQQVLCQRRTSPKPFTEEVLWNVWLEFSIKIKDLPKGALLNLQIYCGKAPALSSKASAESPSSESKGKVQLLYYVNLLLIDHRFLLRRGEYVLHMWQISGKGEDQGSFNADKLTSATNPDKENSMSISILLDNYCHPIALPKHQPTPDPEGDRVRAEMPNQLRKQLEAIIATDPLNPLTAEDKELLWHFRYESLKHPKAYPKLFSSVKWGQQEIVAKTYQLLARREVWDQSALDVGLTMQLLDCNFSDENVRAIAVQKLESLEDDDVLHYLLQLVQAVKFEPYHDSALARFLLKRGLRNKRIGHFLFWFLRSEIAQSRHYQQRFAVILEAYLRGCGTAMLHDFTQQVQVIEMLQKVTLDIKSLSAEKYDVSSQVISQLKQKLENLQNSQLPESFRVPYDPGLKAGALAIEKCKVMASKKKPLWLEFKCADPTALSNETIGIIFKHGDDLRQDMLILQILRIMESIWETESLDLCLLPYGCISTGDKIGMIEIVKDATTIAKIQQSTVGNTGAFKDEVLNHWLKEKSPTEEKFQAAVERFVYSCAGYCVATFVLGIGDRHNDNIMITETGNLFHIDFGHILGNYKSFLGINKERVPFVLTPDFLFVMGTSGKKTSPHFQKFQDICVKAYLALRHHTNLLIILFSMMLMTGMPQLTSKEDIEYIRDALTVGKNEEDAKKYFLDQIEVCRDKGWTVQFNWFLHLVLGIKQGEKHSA

A549 = test: Antiproliferative activity against human A549 cells; assay type: functional, cell-based
MCF7 = test: Antiproliferative activity against human MCF7 cells; assay type: functional, cell-based
U-87 MG [5] = test: Antiproliferative activity against human U-87 MG cells; assay type: functional, cell-based, U-87MG ATCC
HepG2 = test: Antiproliferative activity against human HepG2 cells; assay type: functional, cell-based
U-87 MG [6] = test: Inhibition of Akt expression in human U-87 MG cells at 1 uM by Western blotting analysis; assay type: cell-based
U-87 MG [7] = test: Inhibition of Akt expression in human U-87 MG cells at 5 uM by Western blotting analysis; assay type: cell-based
U-87 MG [8] = test: Inhibition of Akt phosphorylation at Ser473 in human U-87 MG cells at 1 to 5 uM by Western blotting analysis; assay type: cell-based; settings: dose 1-5 µM

Compound	IC50 [1] [nM]	IC50 [2] [nM]	IC50 [3] [nM]	IC50 [4] [nM]	other results
O=S(=O)(Nc1cc(-c2ccc3nncc(Nc4ccccc4)c3c2)cnc1Cl)c1ccccc1	4.47				
Oc1cccc(-c2nc(N3CCOCC3)c3oc4ncccc4c3n2)c1 [PI-103]					IC50 (HL-60): 65.6 nM; IC50 (HeLa): 230 nM
CC1CCN(c2cnnc3ccc(-c4cnc(Cl)c(NS(=O)(=O)c5ccccc5)c4)cc23)CC1	0.32	1.61	5.33	3.66	
O=S(=O)(Nc1cc(-c2ccc3nncc(O)c3c2)cnc1Cl)c1ccccc1	833				
O=S(=O)(Nc1cc(-c2ccc3nncc(N4CCCC4)c3c2)cnc1Cl)c1ccccc1	0.87	2.64	5.41	5.97	
C[C@@H](Nc1cnnc2ccc(-c3cnc(Cl)c(NS(=O)(=O)c4ccccc4)c3)cc12)c1ccccc1	5.46				
O=S(=O)(Nc1cc(-c2ccc3nncc(-n4ccnc4)c3c2)cnc1Cl)c1ccccc1	0.21	1.37	2.39	4.02	IC50 (A549): > 50000 nM; IC50 (HL-60): 2400 nM; IC50 (MCF7): 39900 nM; IC50 (HeLa): > 50000 nM; IC50 (U-87 MG [5]): 16700 nM; IC50 (HepG2): > 16600 nM
CCOc1cnnc2ccc(-c3cnc(Cl)c(NS(=O)(=O)c4ccccc4)c3)cc12	0.4	1.78	5.61	4.73	
O=S(=O)(Nc1cc(-c2ccc3nncc(-c4ccccc4)c3c2)cnc1Cl)c1ccccc1	2.91				
O=S(=O)(Nc1cc(-c2ccc3nncc(-c4ccncc4)c3c2)cnc1Cl)c1ccccc1	0.36	0.71	1.7	2.25	
CC(=O)Nc1ccc(Nc2cnnc3ccc(-c4cnc(Cl)c(NS(=O)(=O)c5ccccc5)c4)cc23)cc1	3.3				
O=S(=O)(Nc1cc(-c2ccc3nncc(N4CCOCC4)c3c2)cnc1Cl)c1ccccc1	0.85	1.55	14.5	4.36	IC50 (A549): > 16600 nM; IC50 (HL-60): > 16600 nM; IC50 (MCF7): 13100 nM; IC50 (HeLa): 7700 nM; IC50 (U-87 MG [5]): 2020 nM; IC50 (HepG2): 18300 nM
COc1cnnc2ccc(-c3cnc(Cl)c(NS(=O)(=O)c4ccccc4)c3)cc12	1.1				
CCCCCCOc1cnnc2ccc(-c3cnc(Cl)c(NS(=O)(=O)c4ccccc4)c3)cc12	215				
O=S(=O)(Nc1cc(-c2ccc3nnccc3c2)cnc1Cl)c1ccccc1	19.4				
O=S(=O)(Nc1cc(-c2ccc3nncc(-c4ccc(N5CCOCC5)nc4)c3c2)cnc1Cl)c1ccccc1	0.28	0.709	1.54	1.89	
O=S(=O)(Nc1cc(-c2ccc3nncc(-c4ccc(N5CCOCC5)cc4)c3c2)cnc1Cl)c1ccccc1	0.4	0.711	3.04	2.29	
O=S(=O)(Nc1cc(-c2ccc3nncc(N4CCCCC4)c3c2)cnc1Cl)c1ccccc1	0.67	1.33	4.6	3.19	
O=S(=O)(Nc1cc(-c2ccc3nncc(N4CCNCC4)c3c2)cnc1Cl)c1ccccc1	1.58				IC50 (A549): > 50000 nM; IC50 (HL-60): > 16600 nM; IC50 (MCF7): > 50000 nM; IC50 (HeLa): > 16600 nM; IC50 (U-87 MG [5]): 589 nM; IC50 (HepG2): > 50000 nM
O=S(=O)(Nc1cc(-c2ccc3nncc(Cl)c3c2)cnc1Cl)c1ccccc1	0.55				
COc1ncc(-c2ccc3nncc(N4CCOCC4)c3c2)cc1NS(=O)(=O)c1ccccc1	4.08				
C[C@H](Nc1cnnc2ccc(-c3cnc(Cl)c(NS(=O)(=O)c4ccccc4)c3)cc12)c1ccccc1	27				
COc1ncc(-c2ccc3nncc(Nc4ccc(NC(C)=O)cc4)c3c2)cc1NS(=O)(=O)c1ccccc1	8.57				
COc1ccc(CNc2cnnc3ccc(-c4cnc(Cl)c(NS(=O)(=O)c5ccccc5)c4)cc23)cc1	1.02				
COc1ncc(-c2ccc3nncc(Cl)c3c2)cc1NS(=O)(=O)c1ccccc1	4.42				
COc1ncc(-c2ccc3nncc(Nc4ccccc4)c3c2)cc1NS(=O)(=O)c1ccccc1	30.3				
O=S(=O)(Nc1cc(-c2ccc3nncc(-c4cnc(N5CCOCC5)nc4)c3c2)cnc1Cl)c1ccccc1	0.65	0.936	4.72	4.42	IC50 (A549): 10100 nM; inhibition (U-87 MG [6]): inactive; IC50 (HL-60): 1140 nM; inhibition (U-87 MG [7]): Active; IC50 (MCF7): 31100 nM; IC50 (HeLa): 2040 nM; IC50 (U-87 MG [5]): 264 nM; inhibition (U-87 MG [8]): Active; IC50 (HepG2): > 16600 nM
